Active and inactive are the calls of the source. The rule behind the calls is not given here.
Columns and labels:
[1] = Toxicity in C57BL/6J mouse implanted with mouse MC38 cells assessed as change in neutrophils count at 40 to 160 mg/kg, IG qd for 7 days; format: organism-based; settings: in vivo, po, 168 h, dose 40-160 mg/kg, time 7 day
[2] = Toxicity in C57BL/6J mouse implanted with mouse MC38 cells assessed as change in excised body weight at 5 to 20 mg/kg, ip qd for 13 days; format: organism-based; settings: in vivo, 312 h, dose 5-20 mg/kg, time 13 day
[3] = Toxicity in C57BL/6J mouse implanted with mouse MC38 cells assessed as change in lung index at 5 to 20 mg/kg, ip qd for 13 days; format: organism-based; settings: in vivo, 312 h, dose 5-20 mg/kg, time 13 day
[4] = Toxicity in C57BL/6J mouse implanted with mouse MC38 cells assessed as change in MCHC count at 40 to 160 mg/kg, IG qd for 7 days; format: organism-based; settings: in vivo, po, 168 h, dose 40-160 mg/kg, time 7 day
[5] = Half life in Sprague-Dawley rat at 20 mg/kg, po measured for 24 hrs by LC-MS/MS analysis; format: ADME, organism-based; settings: in vivo
[6] = Toxicity in C57BL/6J mouse implanted with mouse MC38 cells assessed as change in PCT count at 40 to 160 mg/kg, IG qd for 7 days; format: organism-based; settings: in vivo, po, 168 h, dose 40-160 mg/kg, time 7 day
[7] = Toxicity in C57BL/6J mouse implanted with mouse MC38 cells assessed as change in HCT count at 40 to 160 mg/kg, IG qd for 7 days; format: organism-based; settings: in vivo, po, 168 h, dose 40-160 mg/kg, time 7 day
[8] = AUC (0 to infinity) in Sprague-Dawley rat at 20 mg/kg, po measured for 24 hrs by LC-MS/MS analysis; format: ADME, organism-based; settings: in vivo
[9] = system: MC-38; assay: Antitumor activity against mouse MC38 cells implanted in C57BL/6J mouse assessed as tumor growth inhibition at 160 mg/kg, IG qd; format: functional, organism-based; settings: time 7.0 day
[10] = AUC (0 to 24 hrs) in Sprague-Dawley rat at 1 mg/kg, iv measured for 24 hrs by LC-MS/MS analysis; format: ADME, organism-based; settings: in vivo
[11] = Cytotoxicity against human BEAS-2B cells measured after 48 hrs by MTT assay; format: toxicity, cell-based
[12] = Toxicity in C57BL/6J mouse implanted with mouse MC38 cells assessed as change in ALT level at 40 to 160 mg/kg, IG qd for 7 days; format: organism-based; settings: in vivo, po, 168 h, dose 40-160 mg/kg, time 7 day
[13] = Cmax in Sprague-Dawley rat at 20 mg/kg, po measured for 24 hrs by LC-MS/MS analysis; format: ADME, organism-based; settings: in vivo
[14] = Stability in human plasma at 1 mM measured up to 7 hrs by HPLC analysis; format: ADME, cell-free; settings: 1000 µM
[15] = Toxicity in C57BL/6J mouse implanted with mouse MC38 cells assessed as liver weight ratio at 40 to 160 mg/kg, IG qd for 7 days; format: organism-based; settings: in vivo, po, 168 h, dose 40-160 mg/kg, time 7 day
[16] = Toxicity in C57BL/6J mouse implanted with mouse MC38 cells assessed as change in serum urea level at 5 to 20 mg/kg, ip qd for 13 days; format: organism-based; settings: in vivo, 312 h, dose 5-20 mg/kg, time 13 day
[17] = Toxicity in C57BL/6J mouse implanted with mouse MC38 cells assessed as change in monocytes count at 40 to 160 mg/kg, IG qd for 7 days; format: organism-based; settings: in vivo, po, 168 h, dose 40-160 mg/kg, time 7 day
[18] = system: MC-38; assay: Antitumor activity against mouse MC38 cells implanted in C57BL/6J mouse assessed as increase in infiltration of CD8+ T cells at 5 to 20 mg/kg, ip qd for 13 days by IHC analysis; format: functional, organism-based; settings: dose 5-20 mg/kg, time 13.0 day
[19] = Toxicity in C57BL/6J mouse implanted with mouse MC38 cells assessed as injury in spleen at 5 to 20 mg/kg, ip qd for 13 days by H and E staining based analysis; format: organism-based; settings: in vivo, 312 h, dose 5-20 mg/kg, time 13 day
[20] = Toxicity in C57BL/6J mouse implanted with mouse MC38 cells assessed as animal mortality at 5 to 20 mg/kg, ip qd for 13 days; format: organism-based; settings: in vivo, 312 h, dose 5-20 mg/kg, time 13 day
[21] = Toxicity in C57BL/6J mouse implanted with mouse MC38 cells assessed as heart weight ratio at 40 to 160 mg/kg, IG qd for 7 days; format: organism-based; settings: in vivo, po, 168 h, dose 40-160 mg/kg, time 7 day
[22] = Toxicity in C57BL/6J mouse implanted with mouse MC38 cells assessed as change in liver index at 5 to 20 mg/kg, ip qd for 13 days; format: organism-based; settings: in vivo, 312 h, dose 5-20 mg/kg, time 13 day
[23] = system: MC-38; assay: Inhibition of PD-L1-induced cell migration in mouse MC38 cells at 5 uM measured up to 24 hrs by scratch assay; format: functional, cell-based
[24] = system: Mus musculus; assay: Restoration of immune function in C57BL/6J mouse implanted with mouse MC38 cells assessed as increase in serum IFN-gamma level administered intraperitoneally once daily for 13 days by ELISA; format: functional, organism-based; settings: dose 5-20 mg/kg, route ip, time 13.0 day
[25] = Cytotoxicity against human PBMC cells assessed as inhibition of cell viability by CCK8 assay; format: toxicity, cell-based
[26] = Toxicity in C57BL/6J mouse implanted with mouse MC38 cells assessed as change in MPV count at 40 to 160 mg/kg, IG qd for 7 days; format: organism-based; settings: in vivo, po, 168 h, dose 40-160 mg/kg, time 7 day
[27] = Toxicity in C57BL/6J mouse implanted with mouse MC38 cells assessed as drug tolerance at 5 to 20 mg/kg, ip qd for 13 days; format: organism-based; settings: in vivo, 312 h, dose 5-20 mg/kg, time 13 day
[28] = Toxicity in C57BL/6J mouse implanted with mouse MC38 cells assessed as change in heart index at 5 to 20 mg/kg, ip qd for 13 days; format: organism-based; settings: in vivo, 312 h, dose 5-20 mg/kg, time 13 day
[29] = Half life in Sprague-Dawley rat at 10 mg/kg, ip measured for 24 hrs by LC-MS/MS analysis; format: ADME, organism-based; settings: in vivo
[30] = Cmax in Sprague-Dawley rat at 10 mg/kg, ip measured for 24 hrs by LC-MS/MS analysis; format: ADME, organism-based; settings: in vivo
[31] = target: Programmed cell death protein 1/Programmed cell death 1 ligand 1 (Homo sapiens) (UniProt Q15116+Q9NZQ7); assay: Inhibition of PD-1/PD-L1 (unknown origin) interaction in human PBMC cells assessed as increase in IFN-gamma level at 100 nM pretreated with anti-CD3/CD28 and PD-L1 followed by compound addition measured after 72 hrs by ELISA; format: cell-based
[32] = Toxicity in C57BL/6J mouse implanted with mouse MC38 cells assessed as injury in heart at 5 to 20 mg/kg, ip qd for 13 days by H and E staining based analysis; format: organism-based; settings: in vivo, 312 h, dose 5-20 mg/kg, time 13 day
[33] = AUC (0 to 24 hrs) in Sprague-Dawley rat at 10 mg/kg, ip measured for 24 hrs by LC-MS/MS analysis; format: ADME, organism-based; settings: in vivo
[34] = Toxicity in C57BL/6J mouse implanted with mouse MC38 cells assessed as change in RBC count at 40 to 160 mg/kg, IG qd for 7 days; format: organism-based; settings: in vivo, po, 168 h, dose 40-160 mg/kg, time 7 day
[35] = Toxicity in C57BL/6J mouse implanted with mouse MC38 cells assessed as change in PDW count at 40 to 160 mg/kg, IG qd for 7 days; format: organism-based; settings: in vivo, po, 168 h, dose 40-160 mg/kg, time 7 day
[36] = Toxicity in C57BL/6J mouse implanted with mouse MC38 cells assessed as change in serum AST level at 5 to 20 mg/kg, ip qd for 13 days; format: organism-based; settings: in vivo, 312 h, dose 5-20 mg/kg, time 13 day
[37] = Tmax in Sprague-Dawley rat at 20 mg/kg, po measured for 24 hrs by LC-MS/MS analysis; format: ADME, organism-based; settings: in vivo
[38] = system: MC-38; assay: Antitumor activity against mouse MC38 cells implanted in C57BL/6J mouse at 5 to 20 mg/kg, ip qd for 13 days relative to control; format: functional; settings: dose 5-20 mg/kg, time 13 day

C[C@H](N)C(=O)N1Cc2ccc(-c3cccc(-c4ccc5c(c4)OCCO5)c3Cl)cc2C1.Cl
Activity [1]: Non-toxic
Activity [2]: Non-toxic
Activity [3]: Non-toxic
Activity [4]: Non-toxic
half-life [5]: 3.58 h
Activity [6]: Non-toxic
Activity [7]: Non-toxic
AUC(0-inf) [8]: 644 ng·h/mL
inhibition [9]: Time-dependent-effect
AUC(0-t) at 24 h [10]: 180 ng·h/mL
IC50 at 48 h [11]: > 10 µM
Activity [12]: Non-toxic
Cmax [13]: 151 ng/mL
Stability [14]: Stable
Activity [15]: Non-toxic
Activity [16]: Non-toxic
Activity [17]: Non-toxic
Activity [18]: Active
Activity [19]: Non-toxic
Activity [20]: Non-toxic
Activity [21]: Non-toxic
Activity [22]: Non-toxic
inhibition [23]: Active
Activity [24]: Dose-dependent-effect
IC50 [25]: > 5 µM
Activity [26]: Non-toxic
Activity [27]: Non-toxic
Activity [28]: Non-toxic
half-life [29]: 4.02 h
Cmax [30]: 412 ng/mL
inhibition [31]: Active
Activity [32]: Non-toxic
AUC(0-t) at 24 h [33]: 1010 ng·h/mL
Activity [34]: Non-toxic
Activity [35]: Non-toxic
Activity [36]: Non-toxic
Tmax [37]: 2.5 h
TGI [38]: 52.8%
